The record followed here is patent US20210046114A1, “HPV IMMUNOTHERAPY” (The Council of the Queensland Institute of Medical Research, priority 2018, published 2021).

The test system of test [1] is HPV-specific T cells from HNC patients. The test is described as follows: HPV T-cell epitope mapping by intracellular cytokine staining (ICS). The format is cell-based, human. The note with it: for T cell specificity: epitopes mapped in HNC patient T cells, Table 1; for epitope identified by fine-mapping: FIG. 5 and FIG. 6. As to the method:
(§1) Peripheral blood mononuclear cells (PBMCs) from HNC patients were isolated and stimulated with HPV antigen pepmix peptide pools for either HPV16 or HPV18 in separate cultures and prepared for the intracellular cytokine staining (ICS) assay, as described above (non-stimulated controls were run in parallel). T cell response to the pepmix peptide pools was analyzed to identify individual peptides. These individual peptides were further assessed for T cell expansion and ICS analysis to identify potential epitopes. Once the 15mer peptide was identified, further mimimalization of the epitope sequence was carried out to identify the optimal T cell epitope sequence. The 15mer peptide sequences were trimmed from both N- and C-terminus to a minimal of 9-14 amino acid long peptides. Once the minimal peptide sequence was identified, further confirmation was carried out using limiting dose titration ICS assay. After mapping minimal epitope sequence, the HLA restriction of the epitope was identified by stimulating T cells using peptide loaded HLA-matched and mismatched PHA blasts (PHA).
Representative data showing that HPV-specific T cells from HNC patients recognized HPV16-E6, HPV18-E6 antigens can be found in FIGS. 1 and 2, respectively. In order to map the T cell epitope, further analysis was carried out using sub pools of E6 peptides. […] When analyzed on an HPV peptide matrix layout, the common peptide sequence among the responding pools was identified.

Test [2] relates to HPV-specific T cells / HLA-matched and mismatched PHA blasts. The test is described as follows: HLA restriction mapping with peptide loaded HLA-matched and mismatched PHA blasts. The format is cell-based, human. The note with it: epitopes mapped in HNC patient T cells, Table 1. As to the method:
as §1

In the case of “DRAHYNIVTF (listed as Human papillomavirus)”, the T cell specificity result in test [1] is reported as “CD8^+”.
Turning to “TPTLHEYMLDLQPETTDLY (listed as Human papillomavirus)”, the T cell specificity result in test [1] is “CD4^+”. Besides, the HLA restriction result in test [2] is “DQB1*03:01”.
As to “RPFKSNKST (listed as Human papillomavirus)”, the T cell specificity result in test [1] is given as “CD8^+”.
Consider “AFRDLCIVY (listed as Human papillomavirus)”, for which, in test [1], the T cell specificity entry is recorded as “CD8^+”.
Turning to “EKQRHLDKKQRFHNIRGRWTGRCMSCC (listed as Human papillomavirus)”, the T cell specificity result in test [1] is recorded as “CD4^+”. Besides, the HLA restriction entry in test [2] is recorded as “DRB115:01”.
Turning to “NLDTASTTL (listed as Human papillomavirus)”, the T cell specificity entry in test [1] is given as “CD8^+”.
In the case of TLLQQYCLYL, the T cell specificity entry in test [1] is recorded as “CD8^+”.
With “VQSTHVDIRTLEDLLMGTL (listed as Human papillomavirus)”, the T cell specificity result in test [1] was “CD4^+”. In addition, in test [2], the HLA restriction result is given as “DQB1*03:01”.
“IRCINCQKPL (listed as Human papillomavirus)”: the T cell specificity result in test [1] is reported as “CD8^+”.
The same measure, in the same setting: under “KLPQLCTEL (listed as Human papillomavirus)” stands “CD8^+”.
Regarding “SVDSAPILTAFNSSH (listed as Human papillomavirus)”, the T cell specificity entry in test [1] was “CD4^+”. Also, the HLA restriction entry in test [2] is on record as “DQB1*03:01”.
KQRFHNIRGRWTGRC: in test [1], the “epitope identified by fine-mapping” value is listed as “fine CD4 epitope-mapping of HPV16-E6 pools identified”.
As for “LQDVSLEVYL (listed as Human papillomavirus)”, the T cell specificity result in test [1] is reported as “CD8^+”.
As for LLMGTLGIV, the T cell specificity result in test [1] is on record as “CD8^+”.
Consider “VWEVHAGGQVI (listed as Human papillomavirus)”, for which, in test [1], the T cell specificity entry is on record as “CD8^+”.
Same read-out and setting: under “LEDLLMGTLGI (listed as Human papillomavirus)” stands “CD8^+”.
Take “YEQLNDSSEEEDEID (listed as Human papillomavirus)”: the T cell specificity entry in test [1] was “CD4^+”. Further, in test [2], the HLA restriction result was “DQB1*03:01”.
Regarding “RCINCQKPLCPEEKQRHLD (listed as Human papillomavirus)”, the T cell specificity result in test [1] is “CD4^+”. Also, in test [2], the HLA restriction entry was “DRB115:01”.
With “SAFRCFIVY (listed as Human papillomavirus)”, the T cell specificity entry in test [1] was “CD8^+”.
For the sequence “HIDYWKHMRLECALY (listed as Human papillomavirus)”, the T cell specificity entry in test [1] is recorded as “CD4^+”. Further, in test [2], the HLA restriction entry was “DQB1*03:01”.
“SPATAFTVY (listed as Human papillomavirus)”: in test [1], the T cell specificity result is recorded as “CD8^+”.
Take “TVLELTEVFEFA (listed as Human papillomavirus)”: in test [1], the “epitope identified by fine-mapping” value was “HPV18-E6 CD^+ T cell epitope” and the T cell specificity result is listed as “CD8^+”.
Turning to “FELSQMVQW (listed as Human papillomavirus)”, the T cell specificity result in test [1] is “CD8^+”.
Consider “TIHDIILECV (listed as Human papillomavirus)”, for which the T cell specificity entry in test [1] was “CD8^+”.
In the case of “TLQDVSLEVYL (listed as Human papillomavirus)”, in test [1], the T cell specificity entry is “CD8^+”.
Take “GRWTGRCMSC (listed as Human papillomavirus)”: the T cell specificity entry in test [1] is listed as “CD8^+”.
On to “VYDYAFRDLCIVYRDGNPYAVCD (listed as Human papillomavirus)”, for which the T cell specificity entry in test [1] is given as “CD4^+”. In addition, in test [2], the HLA restriction result is “DRB115:01”.
Turning to “FRDLCIVYR (listed as Human papillomavirus)”, the T cell specificity entry in test [1] is on record as “CD8^+”.
Take “HDIILECVY (listed as Human papillomavirus)”: the T cell specificity result in test [1] is “CD8^+”.
As to “SEIAYKYAQ (listed as Human papillomavirus)”, the T cell specificity entry in test [1] was “CD8^+”.
Still for that read-out and setting: under “WPTTPPRPI (listed as Human papillomavirus)” stands “CD8^+”.
The same measure, in the same setting: the same measure for “TVLELTEVFEF (listed as Human papillomavirus)”: “CD8^+”.
Turning to “WKSFFSRTWSRLSLH (listed as Human papillomavirus)”, the T cell specificity entry in test [1] was “CD4^+”. For the same sequence, in test [2], the HLA restriction entry is reported as “DRB1*04:01”.
